{"source": "paper PMC10350922", "about": "“Allosteric Inhibitors of Macrophage Migration Inhibitory Factor (MIF) Interfere with Apoptosis-Inducing Factor (AIF) Co-Localization to Prevent Parthanatos” (Journal of Medicinal Chemistry, 2023)", "key": {"HeLa cells [1]": {"tested_on": "HeLa cells", "assay_type": "cell-based"}, "MIF [2]": {"biological_target": "T1, MIF (Homo sapiens, UniProt P14174)", "T1 construct": "made in house; host or cells: Escherichia coli BL21, pET-20b(p) plasmid", "T1 sequence (P14174 2-115 limits assumed)": "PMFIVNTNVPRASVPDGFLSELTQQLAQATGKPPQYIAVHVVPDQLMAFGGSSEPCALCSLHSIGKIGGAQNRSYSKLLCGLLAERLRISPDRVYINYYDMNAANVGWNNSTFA", "assay": "Microscale thermophoresis (MST) binding assay", "details": "25 °C, RED-tris-NTA labeled MIF", "procedure": "A microscale thermophoresis (MST) assay was performed to confirm the binding of 6y to MIF. […] Overall, we concluded that 6y binds reversibly to an allosteric binding site that affects MIF tautomerase activity.\nMST experiments were performed on a Monolith NT.115 system (NanoTemper Technologies) using 100% LED and 60% IR-laser power. Laser on and off times were set at 30 and 5 s, respectively. A 100 nM dye solution RED-tris-NTA was prepared by mixing 2 μL of the dye (5 μM in DMSO) and 98 μL of PBS-T. The protein concentration was adjusted to 200 nM, and 100 μL of this solution was added to the tube with dye and incubated at rt for 30 min. Meanwhile, a twofold dilution series of compound 6y was prepared in PBS-T containing 5% DMSO. Subsequently, 10 μL of labeled MIF was mixed with 10 μL of the samples with 16 different concentrations of 6y ranging from 2000 to 0.06 μM. The samples were centrifuged for 10 min at rt and the supernatant was transferred into fresh tubes. After that, the standard treated capillaries (K002) were filled with the solutions and the MST curves were measured at 25 °C."}, "MIF [3]": {"biological_target": "T1, MIF", "assay": "MIF tautomerase activity assay (PP substrate, UV absorbance at 300 nm)", "assay_type": "biochemical", "procedure": "Recombinant human MIF with a C-terminal His-tag was expressed and purified following methods published previously.[47] The inhibitory potency for MIF tautomerase activity of the 1-phenyl-1H-1,2,3-triazole-4-carboxamides was measured after pre-incubation with MIF. The MIF-catalyzed PP tautomerization was measured by the corresponding change in UV absorbance over the first 3 min of the reaction.[48] Initial screening of the inhibitory potency was performed at 10 μM inhibitor concentration.\nInhibition of the tautomerase activity and kinetics of MIF was measured using […] (PP) as a substrate. A stock solution was prepared by mixing PP in 50 mM ammonium acetate buffer and adjusted to pH 6.0 using 1.0 M NaOH to provide a concentration of 20 mM. This solution was incubated overnight at 37 °C to allow equilibration of the keto and enol forms and then stored at 4 °C. For the assay, MIF stock solution (10 μL, 70 μM) was diluted in 20 mL of the boric acid buffer (435 mM H3BO3, 1 mM EDTA, pH 6.2) to provide 35 nM solution. The enzyme activity was determined by premixing 192 μL of the MIF dilution with 8 μL of the inhibitors dissolved in DMSO (1 mM). This mixture was preincubated for 10 min. Next, 50 μL of the mixture was mixed with 50 μL of 2 mM PP solution in ammonium acetate buffer. Subsequently, MIF tautomerase activity was monitored by the formation of the borate–enol complex, which was measured by the increase in UV absorbance at 300 nm. The increase in UV absorbance was measured over the first 10 min of incubation using a BioTek Synergy H1 Hybrid plate reader. MIF tautomerase activity in the presence of blank DMSO was set to 100% enzyme activity. […] Data from the first 3 min were used to calculate the initial velocities. All of the graphs were prepared in GraphPad Prism.\nFor the IC50 measurements, 1 mM solutions of the compounds were double-diluted 10 times in DMSO and subsequently, the MIF tautomerase activity was determined by premixing 190 μL of the MIF dilution with 10 μL of the inhibitors. This mixture was preincubated for 10 min and mixed with the 2 mM PP solution as described above."}, "HeLa cells [4]": {"tested_on": "HeLa cells", "assay": "Cell viability (MTS) assay, MNNG-induced parthanatos", "assay_type": "cell-based", "details": "3 h pretreatment, MNNG 50 μM 15 min, 24 h, MTS, read-out: EC50, protection from MNNG-induced parthanatos"}, "MIF/ssDNA binding": {"biological_target": "T2, MIF/ssDNA binding (Homo sapiens, UniProt P14174)", "T2 construct": "made in house; host or cells: Escherichia coli BL21", "T2 sequence (P14174 2-115 limits assumed)": "T1 sequence (P14174 2-115 limits assumed)", "assay": "MIF/ssDNA binding assay (ZP307-labeled MIF, PA20-Q1 quenching)", "details": "labeled MIF 1 μM, PA20-Q1 1 μM; 6y up to 100 μM", "source_text": "Although in our hands the nuclease activity could not unambiguously be assigned to MIF (due to the possibility of bacterial contamination), there is still a possibility that MIF binds to single-stranded DNA (ssDNA). Furthermore, the direct interaction between MIF and ssDNA was investigated. We developed a MIF/ssDNA binding assay to detect and quantify the binding of MIF to ssDNA (Figure 6f). To establish this assay, we employed a MIF probe ZP307 (Figure 1c) that binds covalently to the N-terminal proline of MIF. This probe enables the fluorescent labeling of MIF.[38] The oligonucleotide Poly A was earlier described as a MIF nuclease substrate, lacking a secondary structure.[11] […] This enabled using the BHQ1-labeled poly A oligonucleotide (PA20-Q1) as an energy acceptor to quench fluorescence emission by labeling MIF once a MIF/ssDNA complex formed (Figure 6f). […]\nFive equivalents of probe ZP307 were mixed with recombinant MIF protein for MIF labeling and incubated overnight at 4 °C. […] The fluorescence (Ex488/Em520) was determined immediately using a BioTek Synergy H1 Hybrid plate reader. The wells in the absence of PA20-Q1 were considered a positive control (100% of fluorescence signal), whereas the wells without inhibitors were considered a negative control (0% of fluorescence signal)."}, "HeLa cells [5]": {"tested_on": "HeLa cells", "assay": "Cell death determination by flow cytometry (Hoechst 33342 / PI)", "assay_type": "cell-based", "details": "MNNG 50 μM 15 min, with or without 100 μM inhibitor pretreatment, 24 h"}}, "note": "“Also recorded” adds a separate entry of the source. Read-outs that look alike come from different tables or passages of the source.", "data": [{"smiles": "O=C(Nc1ccccc1)c1ccc(-n2cc(C(=O)NCc3cccs3)nn2)cc1", "note": "[Compound 6y, 1-(4-(Phenylcarbamoyl)phenyl)-N-(thiophen-2-ylmethyl)-1H-1,2,3-triazole-4-carboxamide]", "values": [{"measurement": "MNNG-induced DNA damage (comet assay)", "setting": "HeLa cells [1]; HeLa, 50 μM 6y 2 h, then 10 μM MNNG 2 h, alkaline conditions", "value": "inhibited"}, {"measurement": "Effect of compound alone on genome integrity (comet assay)", "setting": "HeLa cells [1]; HeLa, without MNNG", "value": "did not affect genome integrity"}, {"measurement": "Genomic DNA fragmentation (gel electrophoresis)", "setting": "HeLa cells [1]; pretreatment, dose and time-dependent", "value": "protective effect"}, {"measurement": "Kd", "setting": "MIF [2]", "value": 95, "unit": "µM"}, {"measurement": "remaining activity at 10 µM", "setting": "MIF [3]; 10 μM inhibitor, activity without inhibitor set to 100%, mean, n = 3", "value": 12, "unit": "%"}, {"measurement": "IC50", "setting": "MIF [3]; PP as substrate, 10 min preincubation, read-out: IC50, inhibition of MIF tautomerase activity", "value": "1.7 ± 0.1", "unit": "µM"}, {"measurement": "EC50", "setting": "HeLa cells [4]", "value": "~8", "unit": "µM"}, {"measurement": "EC50", "setting": "HeLa cells [4]; Homo sapiens", "value": "7.7 ± 2.1", "unit": "µM"}, {"measurement": "MIF/PA20-Q1 binding", "setting": "MIF/ssDNA binding", "value": "unable to block MIF/PA20-Q1 binding; also recorded: could not replace the oligonucleotide"}, {"measurement": "Cells stained by PI", "setting": "HeLa cells [5]", "value": 20, "unit": "%"}]}]}
